Here are results for eight molecules from patent US11034650B2, “Compounds useful for treating a Mannheimia haemolytica or Histophilus somni infection” (Intervet Inc., priority 2016, dated 2021).

The structures appear in SMILES notation. Converted amounts (≈) assume the structure as drawn. Some results are limits rather than exact numbers.

Common to all, as to format: cell-based
For test [1], the system named is Mannheimia haemolytica MH 6357 (M7/2, reference strain, cattle infection strain). In words: MIC, broth-microdilution (CLSI VET01-A4), strain MH 6357. Particulars: Mannheimia haemolytica strain MH 6357, broth-microdilution; unit assumed. The essentials:
(§1)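 Two-fold serial dilutions of each compound were prepared, bacteria were grown in them, and plates were then inspected visually. No turbidity at the lowest concentration defined the MIC.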
A general note: Broth dilution looks for growth in wells or tubes with falling amounts of substance.

The test system of test [2] is Mannheimia haemolytica MH 6374 (ATCC 33396, reference strain). In words: MIC, broth-microdilution (CLSI VET01-A4), strain MH 6374. The settings on record: Mannheimia haemolytica strain MH 6374, broth-microdilution; unit assumed. The essentials: as §1
Test [3] has as its system Mannheimia haemolytica MH 10720 (154, BRD field isolate). Description: MIC, broth-microdilution (CLSI VET01-A4), strain MH 10720. The settings on record: Mannheimia haemolytica strain MH 10720, broth-microdilution; unit assumed. Put shortly:
as §1

The test system of test [4] is Mannheimia haemolytica MH 12587 (1071, BRD field isolate, macrolide-resistance: erm+, E+). In words: MIC, broth-microdilution (CLSI VET01-A4), strain MH 12587. Particulars: Mannheimia haemolytica strain MH 12587, broth-microdilution; unit assumed. The essentials:
as §1

Test [5] has as its system Mannheimia haemolytica MH 13065 (XB0446-6003.9, BRD field isolate). In words: MIC, broth-microdilution (CLSI VET01-A4), strain MH 13065. The settings on record: Mannheimia haemolytica strain MH 13065, broth-microdilution; unit assumed. Put shortly:
as §1

Test [6] deals with Mannheimia haemolytica MH 13093 (XB0472-6014.1, BRD field isolate). In words: MIC, broth-microdilution (CLSI VET01-A4), strain MH 13093. The settings on record: Mannheimia haemolytica strain MH 13093, broth-microdilution; unit assumed. Put shortly: as §1
In test [7] the test system is Pasteurella multocida PM 6267 (P 2225 (L386), reference strain, mouse infection strain). In words: MIC, broth-microdilution (CLSI VET01-A4), strain PM 6267. Particulars: Pasteurella multocida strain PM 6267, broth-microdilution; unit assumed. Put shortly: as §1
The subject of test [8] is Pasteurella multocida PM 6391 (ATCC 43137, reference strain). In words: MIC, broth-microdilution (CLSI VET01-A4), strain PM 6391. The settings on record: Pasteurella multocida strain PM 6391, broth-microdilution; unit assumed. The essentials: as §1
In test [9] the test system is Pasteurella multocida PM 10775 (080130003051, BRD field isolate). Description: MIC, broth-microdilution (CLSI VET01-A4), strain PM 10775. Particulars: Pasteurella multocida strain PM 10775, broth-microdilution; unit assumed. Put shortly: as §1
Test [10] has as its system Pasteurella multocida PM 12080 (IV102277-0093, BRD field isolate). Description: MIC, broth-microdilution (CLSI VET01-A4), strain PM 12080. The settings on record: Pasteurella multocida strain PM 12080, broth-microdilution; unit assumed. The essentials:
as §1

In turn, `CC(=O)C(NC(=O)c1ccc(C#Cc2ccc(CNC3CCC3)cc2)cc1)C(=O)NO` (centres unmarked) [Compound 404] showed an MIC MH 6357 in [1] of 12.5 µg/mL (≈ 29.8 µM). The molecule also gave an MIC MH 6374 in [2] of 12.5 µg/mL (≈ 29.8 µM). Besides, in test [3], the MIC MH 10720 amounted to 6.3 µg/mL (≈ 15 µM). The MIC MH 12587 in test [4] was 3.1 µg/mL (≈ 7.39 µM). The same molecule had an MIC MH 13065 in test [5] of 25 µg/mL (≈ 59.6 µM). The molecule also showed an MIC MH 13093 in test [6] of 50 µg/mL (≈ 119 µM). Further, in [7], the MIC PM 6267 was found to be 25 µg/mL (≈ 59.6 µM). The molecule further registered an MIC PM 6391 in test [8] of 0.4 µg/mL (≈ 0.954 µM). The MIC PM 10775 in test [9] was determined as 3.1 µg/mL (≈ 7.39 µM). The molecule further displayed an MIC PM 12080 in [10] of 1.6 µg/mL (≈ 3.81 µM).

`CC(=O)C(NC(=O)c1ccc(C#Cc2ccc(CNC3CCCC3)cc2)cc1)C(=O)NO` (centres unmarked) [Compound 405] displayed an MIC MH 6357 in [1] of 25 µg/mL (≈ 57.7 µM). This molecule also gave an MIC MH 6374 in [2] of 50 µg/mL (≈ 115 µM). The same molecule returned an MIC MH 10720 in test [3] of 6.3 µg/mL (≈ 14.5 µM). The molecule also gave an MIC MH 12587 in test [4] of 12.5 µg/mL (≈ 28.8 µM). In [5], this molecule displayed an MIC MH 13065 of 0.8 µg/mL (≈ 1.85 µM). In addition, the MIC MH 13093 in [6] was 25 µg/mL (≈ 57.7 µM). The same molecule yielded an MIC PM 6267 in [7] of 100 µg/mL (≈ 231 µM). The molecule also had an MIC PM 6391 in [8] of 0.8 µg/mL (≈ 1.85 µM). The MIC PM 10775 in [9] turned out to be 3.1 µg/mL (≈ 7.15 µM). The MIC PM 12080 in [10] is 0.8 µg/mL (≈ 1.85 µM).

In turn, `CCCNCc1ccc(C#Cc2ccc(C(=O)N[C@@H](C(C)=O)C(=O)NO)cc2)cc1` [Compound 406] showed an MIC MH 6357 in [1] of 12.5 µg/mL (≈ 30.7 µM). The molecule also came in with an MIC MH 6374 in test [2] of 25 µg/mL (≈ 61.4 µM). Moreover, the MIC MH 10720 in test [3] was found to be 6.3 µg/mL (≈ 15.5 µM). Also, the MIC MH 12587 in [4] came out at 1.6 µg/mL (≈ 3.93 µM). The MIC MH 13065 in test [5] turned out to be 25 µg/mL (≈ 61.4 µM). This molecule also showed an MIC MH 13093 in [6] of 12.5 µg/mL (≈ 30.7 µM). This molecule also had an MIC PM 6267 in test [7] of 25 µg/mL (≈ 61.4 µM). The MIC PM 6391 in [8] was found to be 0.2 µg/mL (≈ 0.491 µM). Further, in [9], the MIC PM 10775 stood at 3.1 µg/mL (≈ 7.61 µM). The same molecule had an MIC PM 12080 in test [10] of 3.1 µg/mL (≈ 7.61 µM).

`CC(=O)C(NC(=O)c1ccc(C#Cc2ccc(CNCc3cccnc3)cc2)cc1)C(=O)NO` (centres unmarked) [Compound 407] displayed an MIC MH 6357 in test [1] of 3.1 µg/mL (≈ 6.79 µM). The molecule also registered an MIC MH 6374 in [2] of 6.3 µg/mL (≈ 13.8 µM). In test [3], this molecule returned an MIC MH 10720 of 6.3 µg/mL (≈ 13.8 µM). The MIC MH 12587 in test [4] is 1.6 µg/mL (≈ 3.5 µM). Moreover, the MIC MH 13065 in [5] amounted to 6.3 µg/mL (≈ 13.8 µM). In test [6], this molecule gave an MIC MH 13093 of 6.3 µg/mL (≈ 13.8 µM). For the same molecule, in test [7], the MIC PM 6267 amounted to 25 µg/mL (≈ 54.8 µM). This molecule registered an MIC PM 6391 in test [8] of 0.2 µg/mL (≈ 0.438 µM). Further, the MIC PM 10775 in [9] stood at 1.6 µg/mL (≈ 3.5 µM). This molecule gave an MIC PM 12080 in [10] of 0.8 µg/mL (≈ 1.75 µM).

Molecule `CC(=O)C(NC(=O)c1ccc(C#Cc2ccc(CNCc3ccnc(Cl)c3)cc2)cc1)C(=O)NO` (centres unmarked) [Compound 408] came in with an MIC MH 6357 in [1] of 1.6 µg/mL (≈ 3.26 µM). Further, in test [2], the MIC MH 6374 was 1.6 µg/mL (≈ 3.26 µM). Further, the MIC MH 10720 in test [3] was 1.6 µg/mL (≈ 3.26 µM). Moreover, the MIC MH 12587 in [4] came out at 0.4 µg/mL (≈ 0.815 µM). In test [5], this molecule had an MIC MH 13065 of 1.6 µg/mL (≈ 3.26 µM). This molecule also displayed an MIC MH 13093 in test [6] of 1.6 µg/mL (≈ 3.26 µM). In test [7], this molecule came in with an MIC PM 6267 of 6.3 µg/mL (≈ 12.8 µM). The MIC PM 6391 in test [8] was no more than 0.1 µg/mL. The MIC PM 10775 in test [9] worked out at 0.8 µg/mL (≈ 1.63 µM). Also, the MIC PM 12080 in [10] is 0.4 µg/mL (≈ 0.815 µM).

In turn, `CC(=O)C(NC(=O)c1ccc(C#Cc2ccc(CNCc3ccco3)cc2)cc1)C(=O)NO` (centres unmarked) [Compound 410] gave an MIC MH 6357 in [1] of 0.8 µg/mL (≈ 1.8 µM). The MIC MH 6374 in test [2] is 1.6 µg/mL (≈ 3.59 µM). In addition, the MIC MH 10720 in [3] worked out at 1.6 µg/mL (≈ 3.59 µM). The MIC MH 12587 in test [4] turned out to be 0.4 µg/mL (≈ 0.898 µM). This molecule had an MIC MH 13065 in test [5] of 1.6 µg/mL (≈ 3.59 µM). Also, the MIC MH 13093 in test [6] was 1.6 µg/mL (≈ 3.59 µM). In addition, the MIC PM 6267 in test [7] was found to be 6.3 µg/mL (≈ 14.1 µM). Moreover, the MIC PM 6391 in [8] is no more than 0.1 µg/mL. Moreover, the MIC PM 10775 in test [9] was found to be 0.8 µg/mL (≈ 1.8 µM). In addition, the MIC PM 12080 in [10] was determined as 0.4 µg/mL (≈ 0.898 µM).

The molecule `CC(=O)C(NC(=O)c1ccc(C#Cc2ccc(CNCc3cccs3)cc2)cc1)C(=O)NO` (centres unmarked) [Compound 411] came in with an MIC MH 6357 in test [1] of 0.4 µg/mL (≈ 0.867 µM). In addition, the MIC MH 6374 in test [2] stood at 0.8 µg/mL (≈ 1.73 µM). The molecule further registered an MIC MH 10720 in test [3] of 0.8 µg/mL (≈ 1.73 µM). Moreover, in test [4], the MIC MH 12587 was found to be 0.2 µg/mL (≈ 0.433 µM). Further, the MIC MH 13065 in test [5] was 0.8 µg/mL (≈ 1.73 µM). The molecule also registered an MIC MH 13093 in test [6] of 0.8 µg/mL (≈ 1.73 µM). For the same molecule, the MIC PM 6267 in test [7] was determined as 3.1 µg/mL (≈ 6.72 µM). In test [8], this molecule yielded an MIC PM 6391 of no more than 0.1 µg/mL. The MIC PM 10775 in [9] is 0.4 µg/mL (≈ 0.867 µM). The same molecule displayed an MIC PM 12080 in [10] of 0.2 µg/mL (≈ 0.433 µM).

`CC(=O)[C@H](NC(=O)c1ccc(C#Cc2ccc(CNCc3ccc(C)cc3)cc2)cc1)C(=O)NO` [Compound 412]: in test [1], the MIC MH 6357 came to 1.6 µg/mL (≈ 3.41 µM). The molecule also showed an MIC MH 6374 in test [2] of 1.6 µg/mL (≈ 3.41 µM). In [3], this molecule registered an MIC MH 10720 of 1.6 µg/mL (≈ 3.41 µM). This molecule also came in with an MIC MH 12587 in test [4] of 0.4 µg/mL (≈ 0.852 µM). The MIC MH 13065 in test [5] was found to be 1.6 µg/mL (≈ 3.41 µM). Moreover, the MIC MH 13093 in test [6] was 1.6 µg/mL (≈ 3.41 µM). Further, in test [7], the MIC PM 6267 was determined as 6.3 µg/mL (≈ 13.4 µM). For the same molecule, the MIC PM 6391 in [8] is no more than 0.1 µg/mL. For the same molecule, the MIC PM 10775 in test [9] was 0.4 µg/mL (≈ 0.852 µM). The MIC PM 12080 in test [10] came out at 0.2 µg/mL (≈ 0.426 µM).
